# Article PMC6153549 (Investigational New Drugs, 2018)
# Several values for one entry are separate records, joined by “and”; a condition that tells them apart may be missing. Identical values can stand only once. Like-named read-outs stand apart in the source and are kept apart here.
# What was measured:
# [1] = lapatinib administered together with leucovorin, irinotecan and 5-fluorouracil; cited from earlier work
# UGTs = details: in vitro, human liver microsomes; cited from earlier work
# [2] = Plasma pharmacokinetics of paracetamol, paracetamol glucuronide and paracetamol sulphate in rats (HPLC-UV, non-compartmental); type: in vivo, Wistar rats; details: for AUC(0-inf) / Vd/F / k el / AUC0-t / Cmax / MRT last / AUMC0-t / t0.5 / AUC0-∞: plasma; for MRT last: read-out: MRT0-t
# Procedure: The experimental protocol for this study was reviewed and approved by the Local Ethics Committee. All procedures were performed in accordance with the European Union regulations concerning the handling and use of laboratory animals. The study was based on the required minimum number of animals and observation time in order to obtain consistent data. […] The animals were allowed to acclimatise for a week before the beginning of the experiments. The rats were divided into three groups. […] In order to make sure that the animals received the entire dose of the drug, 1 mL of DMSO was then administered to rinse the probe. 80 μL of blood was collected from each rat by cutting off a piece of his tail. […] The blood samples were transferred into heparinised tubes and they were centrifuged at 2880 g for 10 min at 4 °C.
# The total time of analysis for each run was 10 min. The column temperature was maintained at 25 °C, the UV detection wavelength was set at 261 nm, and the injection volume was 50 μL. The validation was performed according to the guidelines of the European Medicines Agency (EMA) concerning validation of bioanalytical methods. […] 20 μL of the internal standard solution and 200 μL of 6% perchloric acid were added to 100 μL of the rat plasma. The samples were shaken for 30 s and then they were centrifuged for 10 min at 5000 g. About 100 μL of the resulting supernatants was transferred into glass inserts and a volume of 50 μL was injected onto HPLC column.
# The pharmacokinetic parameters were estimated with the non-compartmental method, using Phoenix® WinNonlin® 7.0 software (Certara L.P.). kel – elimination rate constant; AUC0-t – area under the plasma concentration-time curve from zero to the time of the last measurable concentration; AUC0-∞ – area under the plasma concentration-time curve from zero to infinity; t0.5 – elimination half-life; Cl/F – clearance; Vd/F – volume of distribution; Cmax – maximum plasma concentration; tmax – time necessary to reach the maximum concentration; MRT0-t – mean residence time; AUMC0-t – area under the first moment curve.
# [3] = liver metabolism; cited from earlier work
# [4] = design: method as in PMID 28070719; reduction of exposure to sunitinib by paracetamol / reduction of exposure to sunitinib in liver by paracetamol / reduction of exposure to sunitinib in kidneys by paracetamol / reduction of exposure to sunitinib in brain by paracetamol: concentration or dose not given beside the values; details: cited from earlier work
# [5] = male mice which received paracetamol; cited from earlier work
# [6] = male, Wistar, rat, po, 100 mg/kg, paracetamol 100 mg/kg p.o. + lapatinib 100 mg/kg p.o. (IL + PA), M ± SD
# [7] = male, Wistar, rat, po, 100 mg/kg, paracetamol 100 mg/kg p.o. alone (IIIPA), M ± SD
# [8] = paracetamol 100 mg/kg p.o. + lapatinib 100 mg/kg p.o. (IL + PA), M ± SD
# [9] = paracetamol 100 mg/kg p.o. alone (IIIPA), M ± SD
# [10] = IL + PA vs IIIPA group, listed as paracetamol glucoronide
# [11] = paracetamol + lapatinib 100 mg/kg p.o. each (IL + PA), M ± SD
smiles,measurement,setting,value
CCc1c2c(nc3ccc(O)cc13)-c1cc3c(c(=O)n1C2)COC(=O)[C@]3(O)CC [SN-38],increase in AUC of SN-38,[1],about 40%
COc1cc2c(Nc3ccc(Br)cc3F)ncnc2cc1OCC1CCN(C)CC1 [vandetanib],inhibition of paracetamol glucuronidation,UGTs,slight inhibitory effect
Cc1cn(-c2cc(NC(=O)c3ccc(C)c(Nc4nccc(-c5cccnc5)n4)c3)cc(C(F)(F)F)c2)cn1 [nilotinib],inhibition of paracetamol glucuronidation,UGTs,slight inhibitory effect
"CC(=O)Nc1ccc(O)cc1 [paracetamol, Paracetamol]",decrease in AUC0-t,[2]; IL + PA vs IIIPA group,~56.8%
same,decrease in AUC0-∞,[2]; IL + PA vs IIIPA group,48.8%
same,increase in MRT0-t,[2]; IL + PA vs IIIPA group,12.1%
same,increase in Vd/F,[2]; IL + PA vs IIIPA group,351.5%
same,AUC(0-inf),[2]; [6],45400 ± 21200 ng·h/mL
same,Vd/F,[2]; [6],8.94 ± 8.04 L
same,k el,[2]; [6],6.67e-05 s⁻¹
same,AUC0-t,"[2]; male, Wistar, rat, po, 100 mg/kg, paracetamol 100 mg/kg p.o. + lapatinib 100 mg/kg p.o. (IL + PA), M ± SD, read-out: AUC0-t",34800 ± 20100 ng·h/mL
same,Cmax,"[2]; male, Wistar, rat, po, 100 mg/kg, paracetamol 100 mg/kg p.o. + lapatinib 100 mg/kg p.o. (IL + PA), M ± SD, read-out: Cmax",10900 ± 6880 ng/mL
same,MRT last,[2]; [6],2.88 ± 0.27 h
same,AUC(0-inf),[2]; [7],88600 ± 8960 ng·h/mL
same,Vd/F,[2]; [7],1.98 ± 0.63 L
same,k el,[2]; [7],9.17e-05 s⁻¹
same,AUC0-t,"[2]; male, Wistar, rat, po, 100 mg/kg, paracetamol 100 mg/kg p.o. alone (IIIPA), M ± SD, read-out: AUC0-t",80500 ± 12100 ng·h/mL
same,Cmax,"[2]; male, Wistar, rat, po, 100 mg/kg, paracetamol 100 mg/kg p.o. alone (IIIPA), M ± SD, read-out: Cmax",24700 ± 8430 ng/mL
same,MRT last,[2]; [7],2.57 ± 0.3 h
same,AUMC0-t,[2]; [8],97.11 ± 52.00 (53.6) μg × h^2/mL
same,t0.5,[2]; [8],5.30 ± 6.92 (130.7) h
same,AUMC0-t,[2]; [9],203.85 ± 18.15 (8.9) μg × h^2/mL
same,t0.5,[2]; [9],2.26 ± 0.70 (31.0) h
same,fraction oxidised to toxic metabolite NAPQI,[3],less than 10%
same,fraction transformed by glucuronidation,[3],40–60%
same,fraction transformed by sulphation,[3],20–46%
Cc1nc(Nc2ncc(C(=O)Nc3c(C)cccc3Cl)s2)cc(N2CCN(CCO)CC2)n1 [dasatinib],inhibition of paracetamol glucuronidation,UGTs,inhibited paracetamol glucuronidation
CC(=O)Nc1ccc(O[C@@H]2O[C@H](C(=O)O)[C@@H](O)[C@H](O)[C@H]2O)cc1 [paracetamol glucuronide],decrease in AUC0-t,[2]; IL + PA vs IIIPA group,26%
same,decrease in AUC0-∞,[2]; IL + PA vs IIIPA group,29%
same,decrease in Cmax,[2]; IL + PA vs IIIPA group,24%
same,decrease in AUC0-t,[2]; [10],~25.5%
same,decrease in AUC0-∞,[2]; [10],~28.6%
same,decrease in Cmax,[2]; [10],about 24.4%
same,AUC0-t,[2]; [8],101.50 ± 22.02 (21.7) μg × h/mL
same,AUC0-∞,[2]; [8],109.94 ± 22.89 (20.8) μg × h/mL
same,Cmax,[2]; [8],29.01 ± 7.62 (26.3) μg/mL
same,"paracetamol glucuronide/paracetamol ratio, AUC0-t",[2]; [9],1.75 ± 0.47 (27.1)
same,"paracetamol glucuronide/paracetamol ratio, Cmax",[2]; [9],1.67 ± 0.41 (24.7)
same,AUC0-t,[2]; [9],136.24 ± 23.58 (17.31) μg × h/mL
same,AUC0-∞,[2]; [9],154.08 ± 35.58 (23.09) μg × h/mL
same,Cmax,[2]; [9],38.38 ± 3.75 (9.76) μg/mL
same,"paracetamol glucuronide/paracetamol ratio, AUC0-t",[2]; [11],3.68 ± 1.67 (45.4)
same,"paracetamol glucuronide/paracetamol ratio, AUC0-∞",[2]; [11],3.36 ± 2.37 (70.6)
same,"paracetamol glucuronide/paracetamol ratio, Cmax",[2]; [11],3.58 ± 1.85 (51.5)
CCN(CC)CCNC(=O)c1c(C)[nH]c(/C=C2\C(=O)Nc3ccc(F)cc32)c1C [sunitinib],effect of paracetamol on sunitinib concentration,[4]; female mice,did not affect the concentration
same,reduction of exposure to sunitinib in brain by paracetamol,[4]; female mice,50%
same,reduction of exposure to sunitinib in kidneys by paracetamol,[4]; female mice,20%
same,reduction of exposure to sunitinib in liver by paracetamol,[4]; female mice,9%
same,reduction of exposure to sunitinib by paracetamol,[4]; male mice,29%
same,reduction of exposure to sunitinib in brain by paracetamol,[4]; male mice,47%
same,reduction of exposure to sunitinib in kidneys by paracetamol,[4]; male mice,15%
same,reduction of exposure to sunitinib in liver by paracetamol,[4]; male mice,15%
same,kidney sunitinib concentration vs control group,[5],1.4 times
same,liver sunitinib concentration vs control group,[5],2.2 times
CNC(=O)c1cc(Oc2ccc(NC(=O)Nc3ccc(Cl)c(C(F)(F)F)c3)cc2)ccn1 [sorafenib],inhibition of paracetamol glucuronidation,UGTs,inhibited paracetamol glucuronidation
CC(=O)Nc1ccc(OS(=O)(=O)O)cc1 [paracetamol sulphate],increase in AUC0-t,[2]; IL + PA vs IIIPA group,~61% and 61.4%
same,AUC0-t,[2]; [8],116.04 ± 27.02 (23.3) μg × h/mL
same,AUC0-∞,[2]; [8],130.23 ± 31.32 (24.1) μg × h/mL
same,Cmax,[2]; [8],35.15 ± 6.61 (18.8) μg/mL
same,"paracetamol sulphate/paracetamol ratio, AUC0-t",[2]; [9],0.91 ± 0.43 (47.3)
same,"paracetamol sulphate/paracetamol ratio, AUC0-∞",[2]; [9],1.05 ± 0.45 (43.1)
same,"paracetamol sulphate/paracetamol ratio, Cmax",[2]; [9],0.88 ± 0.46 (52.7)
same,AUC0-t,[2]; [9],71.92 ± 31.04 (43.2) μg × h/mL
same,AUC0-∞,[2]; [9],82.42 ± 32.71 (39.7) μg × h/mL
same,Cmax,[2]; [9],19.41 ± 7.05 (36.4) μg/mL
same,"paracetamol sulphate/paracetamol ratio, AUC0-t",[2]; [11],4.27 ± 2.29 (53.5)
same,"paracetamol sulphate/paracetamol ratio, AUC0-∞",[2]; [11],4.86 ± 2.74 (56.5)
same,"paracetamol sulphate/paracetamol ratio, Cmax",[2]; [11],4.73 ± 3.02 (64.0)
Cc1ccc(NC(=O)c2ccc(CN3CCN(C)CC3)cc2)cc1Nc1nccc(-c2cccnc2)n1 [imatinib],inhibition of paracetamol glucuronidation,UGTs,inhibited paracetamol glucuronidation
"C#Cc1cccc(Nc2ncnc3cc(OCCOC)c(OCCOC)cc23)c1 [erlotinib, Erlotinib]",inhibition of paracetamol glucuronidation,UGTs,slight inhibitory effect
